A word on the Ki: it is a measure of affinity in units of concentration, obtained from inhibition or displacement.

In this assay the target is Neuronal acetylcholine receptor subunit alpha-4 (Homo sapiens, UniProt P43681).
Chain of Neuronal acetylcholine receptor subunit alpha-4 (P43681 whole entry): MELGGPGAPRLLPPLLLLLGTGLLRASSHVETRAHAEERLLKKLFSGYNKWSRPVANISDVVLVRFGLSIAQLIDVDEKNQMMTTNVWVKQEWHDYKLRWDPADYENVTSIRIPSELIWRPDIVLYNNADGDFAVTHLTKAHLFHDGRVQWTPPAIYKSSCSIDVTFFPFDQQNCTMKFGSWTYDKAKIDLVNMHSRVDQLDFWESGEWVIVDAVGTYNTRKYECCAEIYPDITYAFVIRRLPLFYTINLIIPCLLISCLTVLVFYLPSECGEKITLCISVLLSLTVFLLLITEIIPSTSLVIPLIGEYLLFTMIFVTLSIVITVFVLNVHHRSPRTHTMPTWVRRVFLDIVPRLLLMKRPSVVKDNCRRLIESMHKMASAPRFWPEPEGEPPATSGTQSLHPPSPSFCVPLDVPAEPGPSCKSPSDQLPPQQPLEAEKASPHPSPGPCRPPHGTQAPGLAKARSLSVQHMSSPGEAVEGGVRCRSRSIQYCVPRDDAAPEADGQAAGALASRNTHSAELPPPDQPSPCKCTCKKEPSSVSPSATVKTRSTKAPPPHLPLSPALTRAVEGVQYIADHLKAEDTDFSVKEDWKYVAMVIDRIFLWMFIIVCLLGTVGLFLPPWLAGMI
Regarding `C=CC[N+]12CCC34c5ccccc5N5C=C6C7CC8C9(CC[N+]8(CC=C)CC7=CCO)c7ccccc7N(C=C(C(CC31)C(=CCO)C2)C54)C69` (centres undefined) [NSC_5311001], the Ki is > 10000 nM.

`C[N+](C)(C)CCOC(=O)CCC(=O)OCC[N+](C)(C)C` [2,2'-[(1,4-dioxobutane-1,4-diyl)bis(oxy)]bis(N,N,N-trimethylethanaminium)] gave a Ki of 2900 nM.

`C[N+](C)(C)CCCCCCCCCC[N+](C)(C)C` [Decamethonium Iodide]: affinity was put at a Ki of 1300 nM. This Ki lies about 2.2-fold lower than the previous one.

In the case of `CNC(=O)Oc1ccc2c(c1)C1(C)CCN(C)C1N2C` (centres undefined) [1,3a,8-trimethyl-1H,2H,3H,3aH,8H,8aH-pyrrolo[2,3-b]indol-5-yl N-methylcarbamate], the inhibitory constant (Ki) is > 10000 nM.

As to `CC(=O)SCC[N+](C)(C)C` [ATC], the affinity corresponds to a Ki of 170 nM.

On to `C[N+](C)(C)CCOC(=O)CCCCCCC(=O)OCC[N+](C)(C)C` [NSC_123990], for which the inhibition constant Ki came to 13 nM.

In the case of `C[N+]1(C)CCN(c2ccccc2)CC1` [DMPP], affinity was put at a Ki of 20 nM.

In turn, `COc1cc2c3cc1Oc1cc(ccc1O)C[C@H]1c4c(cc(OC)c(O)c4Oc4ccc(cc4)C[C@@H]3N(C)CC2)CC[N+]1(C)C` [CAS_57-94-3] came in with a Ki of 2000 nM. This Ki lies about 100-fold higher than the previous one.

The compound `O=c1cccc2n1CC1CNCC2C1` (centres undefined) [CAS_485-35-8] came in with an inhibition constant Ki of 0.24 nM.

On to `CC(=O)OC1CC2CCC3C(CCC4(C)C3CC([N+]3(C)CCCCC3)C4OC(C)=O)C2(C)CC1N1CCCCC1` (centres undefined) [CAS_39764], for which the Ki was > 10000 nM.

On to `CC(=O)OC1CC2CCC3C(CCC4(C)C3CC([N+]3(C)CCCCC3)C4OC(C)=O)C2(C)CC1[N+]1(C)CCCCC1` (centres undefined) [NSC_27350], for which the Ki is > 10000 nM.

`C[N+](C)(C)CCOC(N)=O` [(2-Hydroxyethyl)trimethyl ammonium chloride carbamate] yielded an inhibition constant Ki of 150 nM.

As to `C[N+](C)(C)CCCCCC[N+](C)(C)C` [Hexamethoniumdibromide], the Ki is > 10000 nM.

Compound `CCN1CC2(COC(=O)c3ccccc3-n3c(O)cc(C)c3O)CCC(OC)C34C5CC6C(OC)CC(O)(C5C6OC)C(O)(C(OC)C23)C14` (centres undefined) [CAS_21019-30-7] had a Ki of 2800 nM.

Values taken from BindingDB's records for doi:10.1124/mol.64.6.1283 (Barrow Neurological Institute, 2003).
